Test results as given in paper PMC4896225 (Journal of immunology (Baltimore, Md. : 1950), 2016).

Biological target: gp96 (Canis lupus, UniProt P41148)
Test: gamma-32P ATP ATPase assay with purified gp96
Assay type: biochemical

gp96, sequence (P41148 22-804): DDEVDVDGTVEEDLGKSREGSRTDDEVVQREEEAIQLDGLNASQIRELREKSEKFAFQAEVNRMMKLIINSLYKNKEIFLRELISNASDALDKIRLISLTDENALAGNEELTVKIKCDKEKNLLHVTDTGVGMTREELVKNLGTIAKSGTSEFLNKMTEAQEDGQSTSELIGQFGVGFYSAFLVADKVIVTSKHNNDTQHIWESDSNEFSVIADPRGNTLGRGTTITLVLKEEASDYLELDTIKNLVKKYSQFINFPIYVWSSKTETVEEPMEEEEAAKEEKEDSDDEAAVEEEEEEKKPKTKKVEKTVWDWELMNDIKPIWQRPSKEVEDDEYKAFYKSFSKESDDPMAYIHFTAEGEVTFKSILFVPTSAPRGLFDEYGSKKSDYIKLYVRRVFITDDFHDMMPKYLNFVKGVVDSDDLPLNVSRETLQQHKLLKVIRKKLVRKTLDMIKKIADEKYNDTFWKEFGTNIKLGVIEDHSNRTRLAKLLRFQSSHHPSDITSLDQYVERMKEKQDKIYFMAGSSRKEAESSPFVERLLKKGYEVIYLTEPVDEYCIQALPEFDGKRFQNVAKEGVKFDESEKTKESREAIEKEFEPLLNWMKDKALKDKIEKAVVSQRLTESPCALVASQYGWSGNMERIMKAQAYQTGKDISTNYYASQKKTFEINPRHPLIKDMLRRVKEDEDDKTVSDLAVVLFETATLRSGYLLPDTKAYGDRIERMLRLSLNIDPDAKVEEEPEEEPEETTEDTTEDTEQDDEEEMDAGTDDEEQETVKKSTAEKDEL

- IC50: ~300 nM
Structure (SMILES): C/C(=N\NC(=N)N)c1cc(NC(=O)CCCCCCCCC(=O)Nc2cc(/C(C)=N/NC(=N)N)cc(/C(C)=N/NC(=N)N)c2)cc(/C(C)=N/NC(=N)N)c1 [Semapimod, N, N’-bis [3,5-diacetylphenyl] decanediamide tetrakis [amidinohydrazone]]
